The text below walks through data of patent US8623919B2, “Method of synthesizing S-allyl-cysteine analogues and their therapeutic application in treating myocardial infarction” (Fudan University, priority 2007, dated 2014).

The subject of experiment [1] is myocardial cells. The experiment in a line: SOD activity (Hydroxylamine method) in hypoxia/reoxygenation injured myocardial cells. It counts as cell-based, Sprague-Dawley (SD) rat. The protocol: Myocardial cell samples were obtained from the same procedure of Example 1, the experiment groups were divided and hypoxia/reoxygenation experiments were performed on Control group, Vehicle group, SAC and analogue groups, same as the experiments in Example 1 with the same dosages and same conditions. Myocardial cells were obtained from each sample (10^6 myocardial cells/sample) from the Control group, Vehicle group, SAC and analogue groups. The cells were lysed under sterilized condition, and SOD (superoxide dismutase) activities in each sample of the cells were determined by Hydroxylamine method (a conventional method well known in the arts) using each microgram of protein per 1 milliliter reaction solution inhibits SOD activity to its 50% of original activity, in which the amount of SOD used in the reaction as standard of 1 unit of SOD activity.

For experiment [2], the system named is myocardial cells. Briefly: Lipid peroxidation (MDA, TBA) in hypoxia/reoxygenation injured myocardial cells. The note with it: 10^−5 mol/L. It counts as cell-based, Sprague-Dawley (SD) rat. The protocol:
Myocardial cell samples were obtained from the same procedure of Example 1, the experiment groups were divided and hypoxia/reoxygenation experiments were performed on Control group, Vehicle group, SAC and analogue groups, same as the experiments in Example 1 with the same dosages and same conditions. Myocardial cells were obtained from each sample (10^6 myocardial cells/sample) from the Control group, Vehicle group, SAC and analogue groups. The cells were lysed under sterilized condition, and lipid peroxidation experiments on the samples were performed. Since oxygen free radical attacks poly unsaturated fatty acid in biomembrane, inducing lipid peroxidation and producing MDA (malondialdehyde). MDA can react with thiobarbituric acid (TBA), forms red product, which can be detected in spectrophotometer at 532 nm. […] The inhibition effect could be reversed by PAG.

For experiment [3], the system named is rats following MI injury. The experiment in a line: Serum LDH in rats (sham or MI). It counts as in vivo, SD rats. The note with it: Sham rats; 50 mg/Kg/day intraperitoneal. As to the method:
(§1) Animals were assigned and prepared the same as in Example 7, and dosages of SPRC and SAC were used the same in this example as in Example 7.
(§2) Serum CK levels were detected with diagnostic kit (NJBI, China) according to the instructions. LDH were determined calorimetrically with a spectrophotometer. Lipid peroxidation was measured in terms of MDA content using the thiobarbituric acid (TBA) assay. […] With regard to lipid peroxidation, the levels of MDA in MI groups increased at 48 h after myocardial infarction. […] (FIG. 14)

In experiment [4] the test system is rats following MI injury. Briefly: Serum CK in rats (sham or MI). Conditions: Sham rats; 50 mg/Kg/day intraperitoneal. It counts as in vivo, SD rats. The protocol: as §1, §2
Experiment [5] relates to rats following MI injury. Briefly: MDA content (TBA assay) in rats (sham or MI). In kind it is in vivo, SD rats. Conditions: Sham rats; 50 mg/Kg/day intraperitoneal. The protocol: as §1, §2
The subject of experiment [6] is rats following MI injury. The experiment in a line: SOD activity in plasma of rats (sham or MI). Conditions: 50 mg/Kg/day intraperitoneal. It counts as in vivo, SD rats. The protocol:
as §1, §2

The test system of experiment [7] is rats following MI injury. The experiment in a line: Plasma H2S levels in rats (sham or MI). It counts as in vivo, SD rats. The note with it: 50 mg/Kg/day intraperitoneal. The protocol:
as §1
The plasma levels of H2S in each treatment group were determined since CSE mediates the endogenous production of H2S in mammals. Plasma H2S concentrations in MI group rats at 48 h after MI induction were 34.7±5.6 μM (n=8). […] Left ventricular CSE activity was analyzed in the tissue homogenates from each treatment group (n=6). CSE activity was 1.58±0.15 μmol/g protein/hr in left the ventricular tissues in MI group and 2.19±0.32 μmol/g protein/hr in the MI+SAC treated rats.

Experiment [8] has as its system Bcl-2. Briefly: Western blot of Bcl-2 protein in left ventricle. Conditions: MI rats, 50 mg/Kg/day, p<0.01. In kind it is in vivo, SD rats.
Text: as §1
(In western blotting, separated proteins are transferred to a membrane and probed.)

In experiment [9] the test system is CSE mRNA. The experiment in a line: RT-PCR of CSE mRNA in left ventricle. It counts as in vivo, SD rats. Conditions: MI rats, 50 mg/Kg/day.
Text: as §1
(§3) To further verify the effects of SPRC and SAC, the expressions of Bcl-2, Bax and CSE mRNA were accessed by RT-PCR (FIG. 17). An isoform of the CSE gene was detected (GenBank; access no. AY641456). The relative amounts of CSE mRNA in Left ventricular subjected to MI were increase 3.3-fold and 1.5-fold following SPRC and SAC exposure as compared to the MI group.

For experiment [10], the system named is Bax mRNA. The experiment in a line: RT-PCR of Bax mRNA in left ventricle. It counts as in vivo, SD rats. The note with it: MI rats, 50 mg/Kg/day, p<0.05.
Text: as §1, §3

Experiment [11] has as its system H9c2 cells. Briefly: H9c2 cell viability by MTT method after H2O2 injury. In kind it is cell-based. Conditions: H2O2 200 μmol/L 2 hours; SPRC Low Dose 10^−7 mol/L. The protocol: (§4) H9c2 cells were cultured in DMEM with 10% of fetal bovine serum, 37 degree C. and 5% CO2 incubator. The monolayer culture was split at a 1:4 ratio or harvested to perform experiments when confluence was 70-80%. Adjust the density of the cells to […] and inoculate the cells on a 96 well plate.
Control group, no SAC analogues treatment, no H2O2 injured process.
(§5) H2O2 injury (Model) group, no SAC analogues treatment, under H2O2 200 μmol/L for 2 hours.
(§6) PAG group, PAG 10^−4/mol/L
(§7) SPRC dosage groups: SPRC 1E-7, SPRC 1E-6, SPRC 1E-5, the cell groups were treated with SPRC dosages of 10^−7 mol/L, 10^−6 mol/L, 10^−5 mol/L respectively.
(§8) SPRC dosage+PAG groups: the cell group was treated with SPRC dosages of 10^−5 mol/L and PAG 10^−4 mol/L.
H9c2 cell viability was assessed by MTT method. […] PAG is able to block the effect of SPRC.
A general note: Tetrazolium assays rely on reduction of a dye to a coloured formazan, in cell work by metabolically active cells.

In experiment [12] the test system is H9c2 cells. The experiment in a line: LDH leakage of H9c2 cells injured by H2O2. It counts as cell-based. The note with it: for LDH Leakage: H2O2 200 μmol/L 2 hours. As to the method:
as §4, §5, §6, §7, §8
The cell samples (10^6 cells/sample) from each group were lysed under sterilized condition, and LDH contents in each samples were tested by pyruvic acid production method.
A general note: LDH in the medium is a marker of cell lysis.

In experiment [13] the test system is H9c2 cells. The experiment in a line: Endogenous H2S level in H2O2 injured H9c2 cells. In kind it is cell-based. The note with it: SPRC treatments. The text has this: (§9) Similar experiments are done on cultured H9c2 cardiac muscle cells groups with the same experiment condition and different dosages of SPRC treatments. The results of the experiments confirm that endogenous H2S level in H2O2 injured H9c2 cells is elevated by SPRC treatments. […] It is also observed that the apoptosis of hypoxic myocardial cells is decreased, the survival rate of the in H2O2 injured H9c2 cells is increased and the LDH releasing from the in H2O2 injured H9c2 cells are reduced by three dosages of SPRC treatment.

Experiment [14] has as its system H9c2 cells. Briefly: Catalase activity in H2O2 injured H9c2 cells. In kind it is cell-based. The note with it: SPRC treatments.
Text: as §9

As to `C#CCSC[C@H](N)C(=O)O` [SPRC, S-propargyl-cysteine], the “Mn-SOD activity in mitochondria” value in [1] (10^−5 mol/L) is reported as “able to elevate”. Besides, in [1] (with PAG), the “effect of PAG on elevating Mn-SOD activity” value is “PAG also reversed”. Further, the “lipid peroxidation (MDA)” value in experiment [2] is given as “inhibited”. The LDH in [3] was determined as 2612 ± 189 U/L. In [4], this molecule displayed a CK of 0.251 ± 0.032 U/ml. In experiment [5], this molecule displayed an MDA of 3.79 ± 0.40 nmol/mL. Further, the SOD in experiment [6] (MI rats, 48 h after MI) is listed as 113.8 ± 1.5 U/ml; in [6] (Sham rats), 161.2 ± 3.8 U/ml. The “H2S concentration in plasma” value came out at 91.6 ± 7.6 µM in experiment [7] (MI rats, 48 h after MI induction, 50 mg/kg/day) and 67.2 ± 6.4 µM in [7] (Sham rats). In experiment [8], the Bcl-2 protein expression result is on record as “up-regulated”. For the same molecule, the “relative amounts of CSE mRNA, increase as compared to the MI group” value in experiment [9] turned out to be 3.3 fold. Moreover, in experiment [10], the Bax gene expression entry was “down regulated”. In experiment [11], the “H9c2 Cell Survive” value was 62.4 ± 1.6%. Moreover, the “LDH Leakage” value in experiment [12] (SPRC High Dose 10^−5 mol/L) stood at 43.9 ± 3.0 %; in experiment [12] (SPRC Low Dose 10^−7 mol/L), 51.4 ± 1.8%; in experiment [12] (SPRC middle Dose 10^−6 mol/L), 50.0 ± 2.6 %. For the same molecule, in experiment [12] (H2O2 injured H9c2, SPRC groups (10^−7 to 10^−5 mol/L)), the “LDH leakage compared with model group” value is “less LDH leakage than that of model group”. For the same molecule, in experiment [13], the “endogenous H2S level” value is listed as “elevated”. The catalase activity entry in [14] is listed as “elevated”.
